# Assay results: PubChem BioAssay (NCI)
#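 Tested at 5 concentrations; 48 h exposure; 96-well plates; endpoints linearly interpolated, else capped at highest concentration. TGI: total growth inhibition.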
# Experiments:
# Experiment in all cases: DTP human tumour cell line panel, 48 h
# [1] = system: DMS 273 small cell lung
# [2] = system: IGROV1 ovarian
# [3] = system: RXF 393 renal
# [4] = system: RXF-631 renal
# [5] = system: SR leukemia
# [6] = system: SF-295 CNS
# [7] = system: HT29 colon
# [8] = system: NCI-H522 lung
# [9] = system: RPMI-8226 leukemia
# [10] = system: M19-MEL melanoma
# [11] = system: SK-OV-3 ovarian
# [12] = system: UO-31 renal
# [13] = system: U251 CNS
# [14] = system: SW-620 colon
# [15] = system: MOLT-4 leukemia
# [16] = system: M14 melanoma
# [17] = system: KM20L2 colon
# [18] = system: NCI-H23 lung
# [19] = system: CCRF-CEM leukemia
# [20] = system: HOP-18 NSCLC
# [21] = system: K-562 leukemia
# [22] = system: LOX IMVI melanoma
# [23] = system: HCT-15 colon
# [24] = system: SNB-78 CNS
# [25] = system: NCI-H226 lung
# [26] = system: SK-MEL-28 melanoma
# [27] = system: SK-MEL-5 melanoma
# [28] = system: HOP-92 NSCLC
# [29] = system: NCI-H460 lung
# [30] = system: 786-0 renal
# [31] = system: HCT-116 colon
# [32] = system: SN12C renal
# [33] = system: COLO 205 colon
# [34] = system: OVCAR-8 ovarian
# [35] = system: SF-268 CNS
# [36] = system: SNB-19 CNS
# [37] = system: OVCAR-5 ovarian
# [38] = system: DMS 114 small cell lung
# [39] = system: TK-10 renal
# [40] = system: XF 498 CNS
# [41] = system: SK-MEL-2 melanoma
# [42] = system: DLD-1 colon
# [43] = system: A549 NSCLC
# [44] = system: SNB-75 CNS
# [45] = system: HOP-62 NSCLC
# [46] = system: EKVX NSCLC
# [47] = system: CAKI-1 renal
# [48] = system: UACC-62 melanoma
# [49] = system: MALME-3M melanoma
# [50] = system: HCC-2998 colon
# [51] = system: ACHN renal
# [52] = system: UACC-257 melanoma
# [53] = system: HL-60(TB) leukemia
# [54] = system: OVCAR-3 ovarian
# [55] = system: A498 renal
# [56] = system: KM12 colon
# [57] = system: SF-539 CNS
# [58] = system: OVCAR-4 ovarian
# [59] = system: LXFL 529 NSCLC
structure (smiles),measurement,setting,value
CCCCNC(=O)NNC(=O)c1cc(/C=C/c2cccc([N+](=O)[O-])c2)ncn1,TGI,[1],> 100 µM
same,TGI,[2],> 100 µM
same,TGI,[3],> 100 µM
same,TGI,[4],> 100 µM
same,TGI,[5],> 100 µM
same,TGI,[6],> 100 µM
same,TGI,[7],> 100 µM
same,TGI,[8],> 100 µM
same,TGI,[9],59.8 µM
same,TGI,[10],> 100 µM
same,TGI,[11],> 100 µM
same,TGI,[12],> 100 µM
same,TGI,[13],44.8 µM
same,TGI,[14],33.7 µM
same,TGI,[15],> 100 µM
same,TGI,[16],> 100 µM
same,TGI,[17],> 100 µM
same,TGI,[18],> 100 µM
same,TGI,[19],> 100 µM
same,TGI,[20],> 100 µM
same,TGI,[21],> 100 µM
same,TGI,[22],> 100 µM
same,TGI,[23],> 100 µM
same,TGI,[24],> 100 µM
same,TGI,[25],> 100 µM
same,TGI,[26],> 100 µM
same,TGI,[27],> 100 µM
same,TGI,[28],> 100 µM
same,TGI,[29],> 100 µM
same,TGI,[30],> 100 µM
same,TGI,[31],> 100 µM
same,TGI,[32],> 100 µM
same,TGI,[33],> 100 µM
same,TGI,[34],> 100 µM
same,TGI,[35],> 100 µM
same,TGI,[36],> 100 µM
same,TGI,[37],> 100 µM
same,TGI,[38],> 100 µM
same,TGI,[39],> 100 µM
same,TGI,[40],> 100 µM
same,TGI,[41],> 100 µM
same,TGI,[42],> 100 µM
same,TGI,[43],> 100 µM
same,TGI,[44],> 100 µM
same,TGI,[45],> 100 µM
same,TGI,[46],> 100 µM
same,TGI,[47],> 100 µM
same,TGI,[48],> 100 µM
same,TGI,[49],> 100 µM
same,TGI,[50],> 100 µM
same,TGI,[51],> 100 µM
same,TGI,[52],> 100 µM
same,TGI,[53],> 100 µM
same,TGI,[54],> 100 µM
same,TGI,[55],> 100 µM
same,TGI,[56],> 100 µM
O=C(/C=C/c1ccccc1O)c1cccs1,TGI,[1],> 100 µM
same,TGI,[2],> 100 µM
same,TGI,[3],> 100 µM
same,TGI,[4],> 100 µM
same,TGI,[5],> 100 µM
same,TGI,[6],> 100 µM
same,TGI,[7],> 100 µM
same,TGI,[8],> 100 µM
same,TGI,[10],> 100 µM
same,TGI,[11],> 100 µM
same,TGI,[12],> 100 µM
same,TGI,[13],> 100 µM
same,TGI,[14],> 100 µM
same,TGI,[15],> 100 µM
same,TGI,[16],> 100 µM
same,TGI,[17],> 100 µM
same,TGI,[18],> 100 µM
same,TGI,[19],> 100 µM
same,TGI,[20],> 100 µM
same,TGI,[21],> 100 µM
same,TGI,[22],> 100 µM
same,TGI,[23],> 100 µM
same,TGI,[24],> 100 µM
same,TGI,[25],> 100 µM
same,TGI,[26],> 100 µM
same,TGI,[27],> 100 µM
same,TGI,[29],> 100 µM
same,TGI,[30],> 100 µM
same,TGI,[31],> 100 µM
same,TGI,[32],> 100 µM
same,TGI,[33],> 100 µM
same,TGI,[34],> 100 µM
same,TGI,[35],> 100 µM
same,TGI,[36],> 100 µM
same,TGI,[37],> 100 µM
same,TGI,[57],> 100 µM
same,TGI,[39],> 100 µM
same,TGI,[40],> 100 µM
same,TGI,[41],> 100 µM
same,TGI,[42],> 100 µM
same,TGI,[43],> 100 µM
same,TGI,[44],> 100 µM
same,TGI,[45],> 100 µM
same,TGI,[46],> 100 µM
same,TGI,[47],> 100 µM
same,TGI,[48],> 100 µM
same,TGI,[58],> 100 µM
same,TGI,[49],> 100 µM
same,TGI,[50],> 100 µM
same,TGI,[51],> 100 µM
same,TGI,[52],> 100 µM
same,TGI,[53],> 100 µM
same,TGI,[54],> 100 µM
same,TGI,[55],45.5 µM
same,TGI,[59],> 100 µM
same,TGI,[56],> 100 µM
Cn1c2c(c3ccccc31)CCN(CCCN1CCN(c3cccc(Cl)c3)CC1)C2=O,TGI,[1],84.5 µM
same,TGI,[2],66.1 µM
same,TGI,[3],49.7 µM
same,TGI,[4],90.7 µM
same,TGI,[7],29 µM
same,TGI,[8],79.9 µM
same,TGI,[9],35 µM
same,TGI,[10],42.5 µM
same,TGI,[11],> 100 µM
same,TGI,[12],32.6 µM
same,TGI,[13],12.7 µM
same,TGI,[14],> 100 µM
same,TGI,[15],55.3 µM
same,TGI,[16],40.1 µM
same,TGI,[17],11.1 µM
same,TGI,[18],66.9 µM
same,TGI,[19],> 100 µM
same,TGI,[20],83.1 µM
same,TGI,[21],35.8 µM
same,TGI,[22],50.8 µM
same,TGI,[23],> 100 µM
same,TGI,[26],34.3 µM
same,TGI,[27],36.1 µM
same,TGI,[28],18.7 µM
same,TGI,[29],29.9 µM
same,TGI,[30],34.5 µM
same,TGI,[31],24.8 µM
same,TGI,[32],62.4 µM
same,TGI,[33],31.8 µM
same,TGI,[34],77.4 µM
same,TGI,[35],> 100 µM
same,TGI,[36],86.2 µM
same,TGI,[57],32.1 µM
same,TGI,[38],44.4 µM
same,TGI,[39],> 100 µM
same,TGI,[40],27.6 µM
same,TGI,[42],> 100 µM
same,TGI,[43],> 100 µM
same,TGI,[45],41.1 µM
same,TGI,[46],> 100 µM
same,TGI,[47],38.4 µM
same,TGI,[48],39.2 µM
same,TGI,[51],96.8 µM
same,TGI,[53],24.2 µM
same,TGI,[55],10 µM
same,TGI,[59],32.2 µM
